According to patent US20210255193A1, “LYSINE REACTIVE PROBES AND USES THEREOF” (The Scripps Research Institute, priority 2017, published 2021):

Key:
Test in all cases: competitive isoTOP-ABPP
[1] = molecular target: T1, AGFG1 Arf-GAP domain and FG repeat-containing protein 1 (Homo sapiens, UniProt P52594); type: binding; parameters: key to isoTOP-ABPP reactivity ratio at lysine P52594_K134: R = MS1 peak area ratio, DMSO (heavy) / compound-treated (light); settings: for R value (DMSO/fragment) for probe 1 labeling: P52594_K134; for R value (DMSO/fragment) for probe 1 labeling / isoTOP-ABPP reactivity ratio at lysine P52594_K134: 231 sol
T1 construct: isoTOP-ABPP experiments performed in cell lysates (in vitro); endogenous in cells; host or cells: soluble proteome of human cancer cell lines (MDA-MB-231, Ramos, Jurkat)
T1 sequence (P52594 1-562): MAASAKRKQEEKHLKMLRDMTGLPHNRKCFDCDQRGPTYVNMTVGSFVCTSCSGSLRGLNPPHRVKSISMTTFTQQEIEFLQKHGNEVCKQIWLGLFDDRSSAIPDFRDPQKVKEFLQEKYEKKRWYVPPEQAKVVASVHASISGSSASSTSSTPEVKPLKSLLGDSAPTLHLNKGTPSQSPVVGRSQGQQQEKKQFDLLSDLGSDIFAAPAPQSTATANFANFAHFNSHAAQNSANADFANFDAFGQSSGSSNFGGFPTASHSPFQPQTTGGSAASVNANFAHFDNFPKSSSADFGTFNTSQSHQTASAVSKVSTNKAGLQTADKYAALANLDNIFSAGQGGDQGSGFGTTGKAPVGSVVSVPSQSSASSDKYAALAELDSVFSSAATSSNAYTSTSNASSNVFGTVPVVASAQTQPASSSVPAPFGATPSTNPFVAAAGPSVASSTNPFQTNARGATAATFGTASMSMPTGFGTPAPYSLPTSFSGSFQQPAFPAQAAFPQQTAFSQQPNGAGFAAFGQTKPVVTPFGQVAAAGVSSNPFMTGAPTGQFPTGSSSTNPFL
Procedure: (§1) In vitro covalent fragment treatment for isoTOP-ABPP. All compounds were made up as solutions in DMSO (100×) and were used at a final concentration of 50 μM for activated esters and 100 μM for guanidinylating agents. For each profiling sample, 0.5 ml of lysate was treated with 5 μl of the 100× compound stock solution or 5 μl of DMSO. Samples were treated with activated esters for
(§2) STP-alkyne labeling and click chemistry. For concentration-dependent reactivity measurements by isoTOP-ABPP, 0.5 ml proteome aliquots were treated at ambient temperature with 1 mM STP-alkyne 1 (5 μl of 100 mM stock in DMSO) and 0.1 mM STP alkyne 1 (5 μl of 10 mM stock in DMSO), respectively. For competitive isoTOP-ABPP, after in vitro fragment treatment (detailed above), the samples were labeled for 1 h at ambient temperature with 0.1 mM STP-alkyne 1 (5 μl of 10 mM stock in DMSO). Samples were conjugated by copper-mediated azide-alkyne cycloaddition (CuAAC) to either the light (1 mM STP-alkyne or fragment treated) or heavy (0.1 mM STP-alkyne or DMSO treated) TEV tags (10 μl of 5 mM stocks in DMSO, final concentration=100 μM) using tris(2-carboxyethyl)phosphine hydrochloride
(§3) R value calculation and processing. The ratios of light and heavy MS1 peaks for each unique peptide were quantified with a CIMAGE software using default parameters (3 MS1 acquisitions per peak and signal to noise threshold set to 2.5). For reactivity measurements by isoTOP-ABPP, the R value was calculated from the ratio of MS1 peak areas, comparing the 1 mM STP alkyne sample (light TEV tag) with the 0.1 mM STP alkyne sample (heavy TEV tag). For competitive isoTOP-ABPP, the R value was calculated from the ratio of MS1 peak areas, comparing the DMSO treated sample (heavy TEV tag) with the compound treated sample (light TEV tag). […] Ratios for unique peptide entries are calculated for each experiment; overlapping peptides with the same modified lysine (for example, different charge states, MudPIT chromatographic steps or tryptic termini) are grouped together and the median ratio is reported as the final ratio (R). The peptide ratios reported by CIMAGE were further filtered to ensure the removal or correction of low-quality ratios in each individual data set. The quality filters applied were the following: removal of half tryptic peptides; for ratios with high standard deviations from the median (90% of the median or above) the lowest ratio was taken instead of the median; removal of peptides with R=20 and only a single MS2 event triggered during the elution of the parent ion; manual annotation of all the peptides with ratios of 20, removing any peptides with low quality elution profiles that remained after the previous curation steps (only done for competitive isoTOP-ABPP).
(§4) Cross-data processing for fragment screening. For compound treated samples, biological replicates of the same condition were averaged, if the standard deviation was below 60% of the mean; otherwise, for lysines with at least one R value <4 for a particular compound, the lowest value of the ratio set was taken. For lysines, where all R values for a particular compound were ≥4, the average was reported. For peptides containing several possible modified lysines, the lysine with the highest number of quantification events was used for analysis and the remaining, redundant peptides were reported as alternative modification sites. Peptides included in the aggregate dataset (those used for further bioinformatics and statistical analyses) were required to have been quantified in 2 experiments for competitive isoTOP-ABPP. Lysines were categorized as liganded, if they had at least one ratio R≥4 (hit fragments). For liganded lysines with R=20 for all liganding events, lysines were required to have been quantified with R=20 in two separate experiments and were further required to have been quantified with R<20 in one additional experiment.

[2] = molecular target: T2, ABCE1 ATP-binding cassette sub-family E member 1 (Homo sapiens, UniProt P61221); settings: for R value (DMSO/fragment) for probe 1 labeling / isoTOP-ABPP reactivity ratio at lysine P61221_K478 / isoTOP-ABPP reactivity ratio at lysine P61221_K191: 231 sol
T2 construct: isoTOP-ABPP experiments performed in cell lysates (in vitro); endogenous in cells; host or cells: soluble proteome of human cancer cell lines (MDA-MB-231, Ramos, Jurkat)
Procedure: as §1, §2, §3, §4

[3] = molecular target: T3, HDHD3 Haloacid dehalogenase-like hydrolase domain-containing protein 3 (Homo sapiens, UniProt Q9BSH5); type: binding; parameters: key to isoTOP-ABPP reactivity ratio at lysine Q9BSH5_K15: R = MS1 peak area ratio, DMSO (heavy) / compound-treated (light); settings: for R value (DMSO/fragment) for probe 1 labeling: Q9BSH5_K15; for R value (DMSO/fragment) for probe 1 labeling / isoTOP-ABPP reactivity ratio at lysine Q9BSH5_K15: 231 sol
T3 construct: isoTOP-ABPP experiments performed in cell lysates (in vitro); endogenous in cells; host or cells: soluble proteome of human cancer cell lines (MDA-MB-231; Ramos and Jurkat also prepared)
T3 sequence (Q9BSH5 1-251): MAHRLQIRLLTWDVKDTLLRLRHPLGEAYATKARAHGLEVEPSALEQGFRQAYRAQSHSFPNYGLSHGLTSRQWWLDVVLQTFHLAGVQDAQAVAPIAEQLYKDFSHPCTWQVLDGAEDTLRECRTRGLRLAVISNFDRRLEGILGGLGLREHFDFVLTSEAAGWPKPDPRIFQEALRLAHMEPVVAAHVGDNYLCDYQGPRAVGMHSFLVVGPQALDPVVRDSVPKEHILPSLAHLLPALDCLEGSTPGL
Procedure: as §1, §2, §3, §4

Row | Compound | R value (DMSO/fragment) for probe 1 labeling ([1]; 50 uM, in vitro) | R value (DMSO/fragment) for probe 1 labeling ([2]; P61221_K191, 50 uM, in vitro) | R value (DMSO/fragment) for probe 1 labeling ([2]; P61221_K478, 50 uM, in vitro) | R value (DMSO/fragment) for probe 1 labeling ([3]; 50 uM, in vitro) | isoTOP-ABPP reactivity ratio at lysine P52594_K134 ([1]; 50 uM, in vitro) | isoTOP-ABPP reactivity ratio at lysine P61221_K478 ([2]; 50 uM, in vitro) | isoTOP-ABPP reactivity ratio at lysine Q9BSH5_K15 ([3]; 50 uM, in vitro) | also measured
1 | O=C(CC12CC3CC(CC(C3)C1)C2)Oc1ccc([N+](=O)[O-])cc1[N+](=O)[O-] [fragment 38, 2,4-Dinitrophenyl 2-(adamantan-1-yl)acetate] |  |  |  |  |  |  |  | isoTOP-ABPP ratio (R) at liganded lysine P52594_K134 ([1]; 50 uM, in vitro, sol, 231): 1.4; isoTOP-ABPP ratio (R) at liganded lysine P61221_K478 ([2]; 50 uM, in vitro, sol, 231): 0.9; isoTOP-ABPP ratio (R) at liganded lysine Q9BSH5_K15 ([3]; 50 uM, in vitro, sol, 231): 1.2
2 | O=C(Oc1ccc([N+](=O)[O-])cc1[N+](=O)[O-])c1cc(C(F)(F)F)cc(C(F)(F)F)c1 [fragment 31, 2,4-Dinitrophenyl 3,5-bis(trifluoromethyl)benzoate] |  |  |  |  | 1.2 | 1.1 | 4.6 | isoTOP-ABPP reactivity ratio at lysine P61221_K191 ([2]; 50 uM, in vitro): 1.4
3 | CC(C)(C)OC(=O)N=C(NC(=O)OC(C)(C)C)n1cccn1 [fragment 50, reference compound] |  |  |  |  |  |  |  | isoTOP-ABPP ratio, lysine P52594_K134 ([1]; 100 uM_231_sol_in vitro): 1.0; isoTOP-ABPP ratio, lysine P61221_K191 ([2]; 100 uM_231_sol_in vitro): 14.1; isoTOP-ABPP ratio, lysine P61221_K478 ([2]; 100 uM_231_sol_in vitro): 2.1; isoTOP-ABPP ratio, lysine Q9BSH5_K15 ([3]; 100 uM_231_sol_in vitro): 2.8

Further lines, with some results ahead:

Row | R value (DMSO/fragment) for probe 1 labeling ([1]; 50 uM, in vitro) | R value (DMSO/fragment) for probe 1 labeling ([2]; P61221_K191, 50 uM, in vitro) | R value (DMSO/fragment) for probe 1 labeling ([2]; P61221_K478, 50 uM, in vitro) | R value (DMSO/fragment) for probe 1 labeling ([3]; 50 uM, in vitro) | isoTOP-ABPP reactivity ratio at lysine P52594_K134 ([1]; 50 uM, in vitro) | isoTOP-ABPP reactivity ratio at lysine P61221_K478 ([2]; 50 uM, in vitro) | isoTOP-ABPP reactivity ratio at lysine Q9BSH5_K15 ([3]; 50 uM, in vitro) | Compound | also measured
4 | 1.7 | 1.3 | 1.5 | 1.3 |  |  |  | COc1cc(CCC(=O)Oc2c(F)c(F)c(F)c(F)c2F)cc(OC)c1OC [fragment 23, Pentafluorophenyl 3-(3,4,5-trimethoxyphenyl)propanoate] | 
5 | 1.4 | 1.5 | 1.6 | 1.1 |  |  |  | Cn1cc(CC(=O)Oc2c(F)c(F)c(F)c(F)c2F)c2ccccc21 [fragment 22, Pentafluorophenyl 2-(1-methyl-1H-indol-3-yl)acetate] | 
6 |  |  |  |  | 1.5 | 1.4 | 2.3 | O=C(Oc1c(F)c(F)c(F)c(F)c1F)C1CCN(C(=O)OCc2ccccc2)CC1 [fragment 24, 1-Benzyl 4-(pentafluorophenyl) piperidine-1,4-dicarboxylate] | 
7 |  |  |  |  | 1.1 | 1.5 | 4.0 | O=C(Oc1c(F)c(F)c(F)c(F)c1F)c1ccc2ccccc2n1 [fragment 25, Pentafluorophenyl quinoline-2-carboxylate] | isoTOP-ABPP reactivity ratio at lysine P61221_K191 ([2]; 50 uM, in vitro): 1.7
8 | 1.0 | 0.9 | 1.2 | 1.1 |  |  |  | O=C(Oc1c(F)c(F)c(F)c(F)c1F)C(c1ccccc1)c1ccccc1 [fragment 20, Pentafluorophenyl 2,2-diphenylacetate] | 
